Counter-ions that a name gives are not always drawn.
Key:
[1] = Moisture sorption (dynamic vapor sorption, DVS); type: physicochemical; settings: 25° C.; for Vapor sorption behaviour (hygroscopicity, form conversion): DVS 0-95% RH
Procedure: Moisture balance was collected using a dynamic vapor sorption (DVS) analyzer. Relative humidity (RH) was set to 0, 5, 15, 25, 35, 45, 55, 65, 75, 85 and 95% RH for 2 sorption/desorption cycles at 25° C. Equilibration criteria was set at 0.001% weight. Approximately 10 mg of sample was used.

[2] = Solubility: excess solid in water, pH 1.0 or pH 4.5 buffer, filtrate analyzed by HPLC-UV; type: physicochemical; settings: for pH given with the water solubility: water solubility sample; for Water solubility / Solubility in pH 1 buffer / Solubility in pH 4.5 buffer: room temperature; for Water solubility: suspension dispersed for at least 24, filtered, HPLC-UV, pH given in brackets
Procedure: An excess of solid was added to water, pH 1.0 or pH 4.5 buffer to produce a suspension and dispersed for at least 24 at room temperature. Suspensions were filtered. Filtrate was analyzed by HPLC-UV and compared against a standard curve to determine the solution concentration of the crystal form.

Row | Compound | pH given with the water solubility [2] | Water solubility [2] | also measured
1 | COC(=O)N1CCN(Cc2cccc(NC(=O)Nc3ccc(C)nc3)c2F)CC1 [Amorphous hydrochloride salt, omecamtiv mecarbil] |  |  | Vapor sorption behaviour (hygroscopicity, form conversion) [1]: hygroscopic and converts to the crystalline bis-hydrochloride monohydrate Form A; Vapor sorption behaviour (hygroscopicity, form conversion) ([1]; listed as amorphous hydrochloride salt): weight loss due to crystallization to Form A up to 95% RH; Moisture sorption weight gain ([1]; by 50% RH): ~11%
2 | COC(=O)N1CCN(Cc2cccc(NC(=O)Nc3ccc(C)nc3)c2F)CC1 [Bis-fumarate crystalline salt form C, omecamtiv mecarbil] | 3.1 | 13700 µg/mL | 
3 | COC(=O)N1CCN(Cc2cccc(NC(=O)Nc3ccc(C)nc3)c2F)CC1 [Bis-malonate crystalline salt, omecamtiv mecarbil] | 3.69 | greater than 62 mg/mL | 
4 | COC(=O)N1CCN(Cc2cccc(NC(=O)Nc3ccc(C)nc3)c2F)CC1 [Bis-mesylate crystalline salt form B, omecamtiv mecarbil] |  |  | Solubility in pH 1 buffer [2]: greater than 23 mg/mL; Solubility in pH 4.5 buffer [2]: greater than 23 mg/mL
5 | COC(=O)N1CCN(Cc2cccc(NC(=O)Nc3ccc(C)nc3)c2F)CC1 [Bis-naphthalate-2-sulfonate crystalline salt] [omecamtiv mecarbil] |  |  | Solubility in pH 1 buffer [2]: greater than 10 mg/mL; Solubility in pH 4.5 buffer [2]: greater than 10 mg/mL

The next lines start with results.

Row | pH given with the water solubility [2] | Water solubility [2] | Compound | also measured
6 | 1.5 | 16000 µg/mL | COC(=O)N1CCN(Cc2cccc(NC(=O)Nc3ccc(C)nc3)c2F)CC1 [Bis-sulfate crystalline salt form A, omecamtiv mecarbil] | 
7 | 3.5 | 9000 µg/mL | COC(=O)N1CCN(Cc2cccc(NC(=O)Nc3ccc(C)nc3)c2F)CC1 [Bis-sulfate crystalline salt form B, omecamtiv mecarbil] | 
8 | 3.28 | > 53000 µg/mL | COC(=O)N1CCN(Cc2cccc(NC(=O)Nc3ccc(C)nc3)c2F)CC1 [Bis-tartrate crystalline salt form A, omecamtiv mecarbil] | 
9 | 4.7 | 7400 µg/mL | COC(=O)N1CCN(Cc2cccc(NC(=O)Nc3ccc(C)nc3)c2F)CC1 [Hemi-succinate crystalline salt, omecamtiv mecarbil] | 
10 | 1.39 | greater than 72 mg/mL | COC(=O)N1CCN(Cc2cccc(NC(=O)Nc3ccc(C)nc3)c2F)CC1 [Mesylate crystalline salt form A, omecamtiv mecarbil] | 
11 | 2.35 | 300 µg/mL | COC(=O)N1CCN(Cc2cccc(NC(=O)Nc3ccc(C)nc3)c2F)CC1 [Mono-napadisylate crystalline salt, omecamtiv mecarbil] | 
12 | 3.7 | 3800 µg/mL | COC(=O)N1CCN(Cc2cccc(NC(=O)Nc3ccc(C)nc3)c2F)CC1 [bis-maleate crystalline salt form A, omecamtiv mecarbil] | 

Source: patent publication US12612366B2, “Salts and crystal forms of omecamtiv mecarbil” (Amgen Inc., priority 2018, dated 2026)
